pEC50, pIC50: −log10 of the molar value.
Tests used:
[1] = target: T1, CX3CR1 (Homo sapiens (Human), UniProt P49238); assay: hCX3CR1 [3H]-AZD8797 competitive binding assay (filter); settings: CHO-hCX3CR1 membranes, 2 nM [3H]-AZD8797
Outline: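 Filtration radioligand displacement assay: competitor titrations compete with 2 nM [3H]-AZD8797 for membranes from CHO cells expressing hCX3CR1 (9 μg/well). Incubation was 2 h at room temperature in HEPES pH 7.4 with MgCl2, CaCl2, 0.5% BSA and 1% DMSO. Filters were washed with ice-cold high-salt (500 mM NaCl) buffer, and retained radioactivity was scintillation-counted.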

[2] = target: T1, CX3CR1; assay: CX3CR1-dependent cell adhesion to recombinant CX3CL1 in human whole blood under flow; format: cell-based; settings: recombinant full-length CX3CL1
Description: (§1) Adhesion of cells to recombinant full-length human CX3CL1 was monitored under physiological flow using a Cellix VenaFlux microfluidics platform with connected fluorescent microscope and camera, and using Vena8 Fluoro+ Biochips (Cellix) pre-coated with anti-His monoclonal antibody (25 μg/mL; R&D Systems) and His-tagged full-length CX3CL1 (15 μg/mL; R&D Systems).
CX3CR1-Dependent Cell Adhesion to Recombinant CX3CL1 in Human Whole Blood Under Flow
Human whole blood from healthy volunteers was collected using heparin as anti-coagulant. […] Compound stocks or DMSO vehicle were added to 0.5 or 1.0 ml aliquots of blood such that the final concentration of DMSO was 0.1%, corresponding to a 1000-fold dilution of compound stock. Blood was pre-incubated with compound at room temperature for 60 minutes with gentle shaking. DiOC6 (Invitrogen, 5 μM) or Hoechst 33342 (Invitrogen, 300 μM) dye was subsequently added to fluorescently label cells and enable their detection during the flow adhesion assay. To monitor adhesion, blood was allowed to flow through the channels of a Vena8 Fluoro+ biochip at 2.25 dynes per cm^2 for 3-6 minutes prior to capturing images for quantification. Fluorescent cells adhering to the channels were counted and the mean and/or total count across five to six images in each channel were used for calculating concentration-response curves.

[3] = target: T1, CX3CR1; assay: PathHunter β-arrestin recruitment assay; format: cell-based; settings: CHO-K1 CX3CR1 β-Arrestin cells, with CX3CL1
Description: PathHunter β-Arrestin Recruitment Assay
β-Arrestin recruitment was measured using the PathHunter® eXpress enzyme fragment complementation assay (DiscoverX #93-0956E2). 3500 CHO-K1 CX3CR1 β-Arrestin cells/well in Opti-MEM were incubated together with different concentrations of CX3CL1 and antagonistic compound in a Greiner tissue culture treated flat-bottom 384-well plate. After 90 min of incubation at 37° C., the detection reagent supplied in the kit was added and incubation continued for 1 h at room temperature, before reading the luminescence with a Victor2 luminescence plate reader (PerkinElmer). The final DMSO concentration was held constant at 1%.

[4] = target: T1, CX3CR1; assay: Flow adhesion for human B-lymphocyte cell line RPMI-8226; format: cell-based; settings: RPMI-8226 cells under flow, recombinant full-length CX3CL1
Description: as §1
Flow Adhesion for Human B-Lymphocyte Cell Line RPMI-8226
Cells were cultured in RPMI 1640 medium with GlutaMAX and 20% FBS (HyClone, Perbio). Before each experiment, cells were centrifuged at 320 g and resuspended to 5×10^6 cells per ml in RPMI 1640 with 1% FBS. Cells were pre-incubated for 15 minutes at room temperature with CX3CR1 antagonist in an 8-step 3-fold dilution series starting at 3.3 μM. DMSO concentration was kept constant for all antagonist concentrations at 0.1%. Cells were pumped through the channels of the Vena8 Fluoro+ biochip at 0.5 dynes per cm2 for 3 m prior to capturing microscope images for quantification. Cells adhering to channels were counted and the mean values across five images in each channel were used for calculating the concentration-response curves.

[5] = target: T1, CX3CR1; assay: hCX3CR1 [125I]-CX3CL1 displacement binding (SPA); settings: CHO-hCX3CR1 membranes, [125I]-CX3CL1, SPA beads
Description: hCX3CR1 [^125I]-CX3CL1 Displacement Binding (SPA)
CHO-hCX3CR1 membranes (3 μg per well) together with […] [^125I]-CX3CL1 (Perkin Elmer) and different concentrations of competitor compound were incubated together with 400 μg/well WGA coated PVT SPA beads (Perkin Elmer) in 50 mM HEPES (pH 7.4), 10 mM MgCl2, 1 mM EDTA and 0.1% Gelatin in a Greiner polystyrene flat-bottom 384-well plate. The plate was incubated for 20 h at room temperature before the radioactivity was measured using a MicroBeta Trilux reader (PerkinElmer). The DMSO concentration was held constant at 1%.

T1 sequence (P49238 whole entry): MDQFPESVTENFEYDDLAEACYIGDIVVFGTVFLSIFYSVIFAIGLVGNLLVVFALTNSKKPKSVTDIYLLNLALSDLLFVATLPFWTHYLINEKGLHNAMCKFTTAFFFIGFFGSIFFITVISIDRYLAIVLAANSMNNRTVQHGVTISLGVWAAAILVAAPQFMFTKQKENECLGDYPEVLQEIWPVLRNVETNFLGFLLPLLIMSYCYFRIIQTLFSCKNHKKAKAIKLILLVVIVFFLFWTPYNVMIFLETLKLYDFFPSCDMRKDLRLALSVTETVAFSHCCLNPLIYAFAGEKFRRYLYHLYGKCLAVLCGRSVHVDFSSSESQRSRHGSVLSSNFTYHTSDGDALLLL

pIC50 [1] | pIC50 [2] | pEC50 [3] | pIC50 [4] | pIC50 [5] | Structure (SMILES)
7.74 | 6.16 | 7.30 |  |  | COc1ccc([C@H](C)Cc2nc(N[C@@H](CO)CC(C)C)nc(NS(C)(=O)=O)n2)c(F)n1 (single isomer, unassigned) [Example 85, N-(4-((R*)-2-(2-Fluoro-6-methoxypyridin-3-yl)propyl)-6-(((R)-1-hydroxy-4-methylpentan-2-yl)amino)-1,3,5-triazin-2-yl)methanesulfonamide]
7.28 | 5.85 | 7.00 |  |  | COc1cc(F)c([C@H](C)Cc2nc(N[C@@H](CO)CC(C)C)nc(NS(C)(=O)=O)n2)cn1 (single isomer, unassigned) [Example 46, N-(4-((R*)-2-(4-Fluoro-6-methoxypyridin-3-yl)propyl)-6-(((R)-1-hydroxy-4-methylpentan-2-yl)amino)-1,3,5-triazin-2-yl)methanesulfonamide]
7.26 | 5.61 | 6.40 | 6.89 | < 5.00 | COc1ncc([C@H](C)Cc2nc(N[C@@H](CO)CC(C)C)nc(NS(C)(=O)=O)n2)cc1F (single isomer, unassigned) [Example 7, N-(4-((R*)-2-(5-Fluoro-6-methoxypyridin-3-yl)propyl)-6-(((R)-1-hydroxy-4-methylpentan-2-yl)amino)-1,3,5-triazin-2-yl)methanesulfonamide]
7.89 | 6.82 | 7.37 | 8.22 | 6.98 | CC(C)C[C@H](CO)Nc1nc(C[C@@H](C)c2cccc(F)c2F)nc(NS(C)(=O)=O)n1 (single isomer, unassigned) [Example 144, N-(4-((R*)-2-(2,3-Difluorophenyl)propyl)-6-(((R)-1-hydroxy-4-methylpentan-2-yl)amino)-1,3,5-triazin-2-yl)methanesulfonamide]

Reference: patent publication US20240199558A1, “2,4,6-TRISUBSTITUTED 1,3,5-TRIAZINES AS MODULATORS OF CX3CR1” (ASTRAZENECA AB, priority 2022, published 2024)
